Test results as given in patent publication US20160206608A1 (Pfizer Inc., priority 2011, published 2016).

Experiments:
[1] = test system: 3T3-ROS engineered tumor models (CD74-ROS, SLC34A2-ROS (L), SLC34A2-ROS (S), FIG-ROS (L), FIG-ROS (S)); assay: Panel of ROS fusion engineered 3T3-ROS xenograft tumor models; conditions: PO BID, all five models, nude mice
HCC78 human NSCLC cells = assay: Western blot of cleaved caspase-3 (apoptosis) in HCC78 cells; conditions: 3-hour drug treatment
[2] = test system: SLC34A2-ROS dependent signaling (ROS, SHP2, STAT3, AKT, ERK1/2) in HCC78 cells; assay: Immunoblot of ROS mediated signal transduction in HCC78 cells; conditions: 3 hours of drug treatment

For `C[C@@H](Oc1cc(-c2cnn(C3CCNCC3)c2)cnc1N)c1c(Cl)ccc(F)c1Cl` [crizotinib, 3-[(R)-1-(2,6-dichloro-3-fluoro-phenyl)-ethoxy]-5-(1-piperidin-4-yl-1H-pyrazol-4-yl)-pyridin-2-ylamine], the “cytoreductive effect in 3T3-ROS engineered tumor models” value [1] was “significant cytoreductive effects”, the “induction of activated caspase-3 levels” value (HCC78 human NSCLC cells) was “significant dose-dependent induction” and the “inhibition of ROS phosphorylation (activation loop) and downstream SHP2, STAT3, AKT and ERK1/2” value [2] was “dose dependently inhibited”.
